Experimental data reported in patent US20220175734A1, “USING PARASYMPATHOMIMETIC DRUGS ALONE OR, IN COMBINATION WITH ONE OR MORE ALPHA AGONISTS IN PSEUDOPHAKIC PATIENTS, TO CREATE MULTI-FOCALITY” (Visus Therapeutics, Inc., priority 2019, published 2022).
“And” between values parts separate entries of the source, which are not always exact repeats. Equal entries are not always repeated.

How the values were obtained:
[1] = tested on: naturally emmetropic and presbyopic subjects; test: Example 13 crossover trial, combined vs separate carbachol and brimonidine drops: near visual acuity (Rosenbaum chart, Jaeger notation) (Table 13); type: in vivo, human; conditions: for NVA 1-h / NVA 2-h / NVA 4-h / NVA 8-h / NVA Pre-treatment: mean ± SD, ten subjects; for NVA Pre-treatment: before treatment
Description: (§1) Participants were randomly selected volunteers. […] None of the patients included in the study had received any topical medication that could cause pupil mydriasis or miosis. […] All procedures followed were in accordance with the ethical standards of the responsible committee on human experimentation.
(§2) The 3% carbachol drops included 50 ppm of benzalkonium chloride.

[2] = tested on: naturally emmetropic and presbyopic subjects; test: Example 13 crossover trial: pupil size (Colvard infrared pupilometer) (Table 13); type: in vivo, human; conditions: for PS 1-h / PS 2-h / PS 4-h / PS 8-h / PS Pre-treatment: mean pupil size, ten subjects; for PS Pre-treatment: before treatment
Description: as §1, §2

[3] = tested on: emmetropic presbyopes; conditions: Group 1
Description: (§3) The study evaluated in a blind study the efficacy of using of a parasympathomimetic drug of different concentrations together with an alpha agonist to create optically beneficial miosis to temporarily treat different types of presbyopia (emmetropic, myopic and hyperopic).
(§4) One hundred and seventy seven presbyopic subjects with a mean age of 49.8±3.9 years (range 41-57 years); 96 males and 81 females were recruited in this study. The participants in the study all gave written informed consent. […] During the study, the subjects were closely monitored and regularly asked to report on any ocular, systemic, or physiological reactions they experienced. […]
(§5) Initial pupil size and both near and distance visual acuities were documented before treatment and at 1, 2, 4, 8 and 10 hours after treatment at the same room illumination. Subjects were monitored and subjected to complete ocular examination including visual acuity evaluation and slit-lamp biomicroscopy after one week of treatment and monthly during the first three months to evaluate dosage, satisfaction, adverse effects and complications (for instance, retinal detachment, pigment dispersion, posterior synechiae and intraocular inflammation). […] Distance visual acuity was measured using the standard Snellen projector chart. […] Any adverse symptoms and subject satisfaction with near and distance vision were also monitored. […]

[4] = tested on: presbyopic subjects; conditions: subjects receiving brimonidine drops
Description: One hundred and seventy seven presbyopic subjects with a mean age of 49.8±3.9 years (range 41-57 years); 96 males and 81 females were recruited in this study. The participants in the study all gave written informed consent. […] All subjects were in good physical and ocular health and completed a questionnaire to ascertain any contraindications for participation or predisposition to complications (e.g. heart or respiratory conditions, migraines, high myopia, ocular or systemic medications, or ocular surgeries). […] The examination screened for contraindications to the drugs, susceptibility to retinal detachment, ocular pathology, or peripheral retinal degeneration. […] During the study, the subjects were closely monitored and regularly asked to report on any ocular, systemic, or physiological reactions they experienced. […]
Initial pupil size and both near and distance visual acuities were documented before treatment and at 1, 2, 4, 8 and 10 hours after treatment at the same room illumination. Subjects were monitored and subjected to complete ocular examination including visual acuity evaluation and slit-lamp biomicroscopy after one week of treatment and monthly during the first three months to evaluate dosage, satisfaction, adverse effects and complications (for instance, retinal detachment, pigment dispersion, posterior synechiae and intraocular inflammation). […]

[5] = tested on: presbyopia subjects; test: Example 8 dose range studies of carbachol and pilocarpine with or without brimonidine: near LogMAR visual acuity
Description: Dose range studies were performed for carbachol and pilocarpine.
Both Groups 1 and 2 received the same pre- and post-treatment work-up and measurements: Age, gender, initial pupil size, and near vision acuity (NVA) were documented. Subjects' NVA was measured post treatment at 1, 2, 4, and 8 hours, at the same room illumination Any adverse symptoms and subject satisfaction with near and distance vision were documented.

[6] = tested on: myopic presbyopes; conditions: Group 2
Description: as §3, §4, §5

[7] = tested on: hyperopic presbyopes; test: Example 6 masked study: near visual acuity (Jaeger Eye Chart), Group 3, both eyes (Tables 9, 10)
Description: as §3, §4, §5

[8] = tested on: naturally emmetropic and presbyopic subjects; conditions: combination, separate, brimonidine alone, carbachol alone; FIG. 11
Description: Participants were volunteers selected at random.
The study used standard Snellen projector chart to measure distance visual acuity. Near visual acuity was assessed at 40 cm using Jaeger (J) Eye Chart. Statistical analysis was performed using the Student's t-test and p value of less than 0.05 was considered statistically significant. Data was expressed as mean, range, and standard deviation (SD).

[9] = tested on: patients suffering from presbyopia; test: Table 11: pupil diameter after pilocarpine alone or pilocarpine plus brimonidine; type: in vivo, human; conditions: individual patients
[10] = tested on: patients suffering from presbyopia; test: Example 4 preliminary evaluation: near visual acuity after pilocarpine alone or with brimonidine (Table 1 dosages, FIG. 1); type: in vivo, human; conditions: individual patients
Description: Initially, 10 patients were selected for preliminary evaluation. […] All six dosages provided some (varying) initial improvement in visual acuity. However, the effect of formulations containing pilocarpine alone appears to wear out fairly quickly whereas it takes longer time for effects of formulations containing both drugs to wear out.

[11] = tested on: presbyopia subjects; test: Example 8 dose range studies: adverse symptoms, tolerability and satisfaction survey; type: in vivo, human
Description: The survey asked the patients whether they would use the drops again.

[12] = Stability of pilocarpine at neutral pH; type: physicochemical; conditions: needs about pH 5

In the case of C[N+](C)(C)CCOC(N)=O [3% carbachol alone, carbachol], the “mean near visual acuity (NVA)” value ([1]; 1 h post-treatment) is reported as 5.5 ± 1 J, the “mean near visual acuity (NVA)” value ([1]; 2 h post-treatment) is reported as 5.9 ± 0.8 J and the “mean near visual acuity (NVA)” value ([1]; 4 h post-treatment) is reported as 7 ± 1.2 J. The “mean near visual acuity (NVA)” value ([1]; 8 h post-treatment) was 7.5 ± 1 J, the “mean near visual acuity (NVA)” value ([1]; before treatment (baseline)) was 8.6 ± 1.5 J and the “mean near visual acuity (NVA) (target)” value ([1]; hours 1-8, Snellen fraction, FIG. 25) was “never achieved an NVA of ≥20/40”. For the same compound, the “NVA 1-h” value ([1]; 1 h post-treatment) was 5.5 ± 1 J, the “NVA 2-h” value ([1]; 2 h post-treatment) was 5.9 ± 0.8 J and the “NVA 4-h” value ([1]; 4 h post-treatment) was 7 ± 1.2 J. The “NVA 8-h” value ([1]; 8 h post-treatment) was 7.5 ± 1 J, the “NVA Pre-treatment” value [1] was 8.6 ± 1.5 J and the “mean pupil size (PS)” value ([2]; 1 h post-treatment) was 2.8±0.3 mm. The “mean pupil size (PS)” value ([2]; 2 h post-treatment) was 3±0.3 mm, the “mean pupil size (PS)” value ([2]; 4 h post-treatment) was 3.5±0.3 mm and the “mean pupil size (PS)” value ([2]; 8 h post-treatment) was 4±0.3 mm. For the same compound, the “mean pupil size (PS)” value ([2]; before treatment (baseline)) was 4.3±0.5 mm, the “mean pupil size (target)” value ([2]; hours 1-8, FIG. 24) was “never achieved the target pupil size” and the “PS 1-h” value ([2]; 1 h post-treatment) was 2.8 ± 0.3 mm. The “PS 2-h” value ([2]; 2 h post-treatment) was 3 ± 0.3 mm, the “PS 4-h” value ([2]; 4 h post-treatment) was 3.5 ± 0.3 mm and the “PS 8-h” value ([2]; 8 h post-treatment) was 4 ± 0.3 mm. The “PS Pre-treatment” value [2] was 4.3 ± 0.5 mm.

In the case of Brc1c(NC2=NCCN2)ccc2nccnc12 [Brimonidine 0.2%, brimonidine], the “difference in mean NVA before treatment vs any time point after treatment” value (shortened to “difference in mean NVA before treatment”) [3] is reported as “No statistically significant difference”, the “difference in mean NVA before treatment” value ([1]; P>0.05) is reported as “no statistically significant difference” and the “NVA 1-h” value ([1]; 1 h post-treatment) is reported as 7.7 ± 1.3 J. For the same compound, the “NVA 2-h” value ([1]; 2 h post-treatment) was 8.2 ± 1.3 J, the “NVA 4-h” value ([1]; 4 h post-treatment) was 8.5 ± 1.4 J and the “NVA 8-h” value ([1]; 8 h post-treatment) was 8.6 ± 1.5 J. The “NVA Pre-treatment” value [1] was 8.6 ± 1.5 J, the “mild burning sensation, number of subjects” value [4] was 10 subjects and the synergy ([5]; in vivo) was “synergistic with both carbachol and pilocarpine”. For the same compound, the “difference in mean NVA before treatment” value [6] was “No statistically significant difference”, the “difference in mean NVA before treatment” value [7] was “No statistically significant difference” and the “mean change in near visual acuity (J), comparison of all groups” value [8] was “the least”. For the same compound, the “difference in mean PS before treatment vs any time point after treatment” value ([2]; P>0.05) was “no statistically significant difference”, the miotic effect ([2]; mainly first hour after instillation, light luminance, not statistically significant (P>0.05)) was “mild miotic effect” and the “PS 1-h” value ([2]; 1 h post-treatment) was 3.95 ± 0.5 mm. For the same compound, the “PS 2-h” value ([2]; 2 h post-treatment) was 4.2 ± 0.4 mm, the “PS 4-h” value ([2]; 4 h post-treatment) was 4.3 ± 0.5 mm and the “PS 8-h” value ([2]; 8 h post-treatment) was 4.3 ± 0.5 mm. The “PS Pre-treatment” value [2] was 4.3 ± 0.5 mm and the “effect on pupil size or NVA” value ([2]; with 50 ppm BAK) was “virtually no effect”.

With CC[C@@H]1C(=O)OC[C@@H]1Cc1cncn1C [Pilo Alone] the “pupil 1 hr” value ([9]; Pilo 0.5%) was 2.5 and 3.8 and 3 (2×), the “pupil 2 hrs” value ([9]; Pilo 0.5%) was 3 and 4 and 2.5 and 3.3 and the “pupil 4 hrs” value ([9]; Pilo 0.5%) was 3.3 and 4 and 3 and 4.2. The “pupil 1 hr” value ([9]; Pilo 1%) was 2.5 (2×) and 1.5 and 3, the “pupil 2 hrs” value ([9]; Pilo 1%) was 3 (2×) and 1.5 and 2.5 and the “pupil 4 hrs” value ([9]; Pilo 1%) was 4 (2×) and 2.5 and 3. The “pupil 4 hrs” value ([9]; Pilo […]) was 4, the “Pre-Treatment Pupil Diam O.S.” value ([9]; before treatment, left eye) was 4 (2×) and 4.3 and 3.5 (2×) and 5 and 3.9 and 3 and 4.5 (3×) and 5.4 and the “Pre-Treatment Pupil Diam O.D.” value ([9]; before treatment, right eye) was 4 (3×) and 3.5 (2×) and 5 and 4.3 and 3 and 4.5 (3×) and 5.5. For the same compound, the “nVA(j) 1 hr” value ([10]; Pilo 0.5%) was 3 j (2×) and 6 j and 5 j, the “nVA(j) 2 hrs” value ([10]; Pilo 0.5%) was 5 j (2×) and 3 j (2×) and the “nVA(j) 4 hrs” value ([10]; Pilo 0.5%) was 5 j (3×) and 3 j. For the same compound, the “nVA(j) 1 hr” value ([10]; Pilo 1%) was 3 j (2×) and 2 j and 8 j, the “nVA(j) 2 hrs” value ([10]; Pilo 1%) was 3 j and 2 j (2×) and 8 j and the “nVA(j) 4 hrs” value ([10]; Pilo 1%) was 5 j (2×) and 3 j and 10 j. For the same compound, the “Pre-Treatment Near Va” value ([10]; before treatment) was 6 j (4×) and 5 j (4×) and 8 j (2×) and 10 j and 3 j.

For C[N+](C)(C)CCOC(N)=O [carbachol], the “tolerability / discomfort vs carbachol concentration” value ([11]; over seven days, FIG. 15) was “caused some increased discomfort” and the duration ([5]; in vivo) was 8 h.

In the case of CC[C@@H]1C(=O)OC[C@@H]1Cc1cncn1C [pilocarpine], the burning ([11]; in vivo) is reported as “burned”, the onset of effect ([5]; pilocarpine vs carbachol) is reported as “more immediate effect” and the duration ([5]; pilocarpine vs carbachol, in words) is reported as “shorter duration”. For the same compound, the “stability at neutral pH” value [12] was “unstable at neutral pH”.
